Laboratory results: patent US20220380374A1, “1,4-DIHYDROBENZO[D]PYRAZOLO[3,4-F][1,3]DIAZEPINE DERIVATIVES AND RELATED COMPOUNDS AS LRRK2, NUAK1 AND/OR TYK2 KINASE MODULATORS FOR THE TREATMENT OF E.G. AUTOIMMUNE DISEASE” (Origenis GMBH, priority 2019, published 2022)

Molecular target: T1, wt human NUAK1, full length (Homo sapiens, UniProt O60285)
T1 construct: 8 nM wt human NUAK1, full length (ThermoFisher/USA); purchased ThermoFisher/USA
T1 sequence (O60285 1-661): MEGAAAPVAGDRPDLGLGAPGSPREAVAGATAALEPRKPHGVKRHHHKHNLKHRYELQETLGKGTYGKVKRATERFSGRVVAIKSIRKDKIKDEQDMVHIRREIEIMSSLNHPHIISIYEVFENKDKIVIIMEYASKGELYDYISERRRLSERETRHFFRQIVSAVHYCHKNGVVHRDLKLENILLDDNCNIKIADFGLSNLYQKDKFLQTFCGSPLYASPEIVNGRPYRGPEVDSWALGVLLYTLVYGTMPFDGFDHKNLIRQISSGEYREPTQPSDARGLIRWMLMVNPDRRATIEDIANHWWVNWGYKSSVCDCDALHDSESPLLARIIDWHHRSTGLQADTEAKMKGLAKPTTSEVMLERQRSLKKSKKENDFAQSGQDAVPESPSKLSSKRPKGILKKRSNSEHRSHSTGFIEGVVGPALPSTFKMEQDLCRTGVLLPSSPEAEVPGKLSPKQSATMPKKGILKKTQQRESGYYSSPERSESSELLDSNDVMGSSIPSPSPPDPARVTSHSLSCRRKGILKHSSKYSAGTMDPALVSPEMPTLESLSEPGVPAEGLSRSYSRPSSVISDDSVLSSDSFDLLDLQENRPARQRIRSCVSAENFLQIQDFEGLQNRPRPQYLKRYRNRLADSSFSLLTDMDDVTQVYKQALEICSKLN
Assay: TR-FRET LanthaScreen Eu Kinase Binding Assay, NUAK1
Details: 5 nM Kinase Tracer 236; read-out: IC50, inhibitory activity toward NUAK1
Experimental: The basic protocol for TR-FRET LanthaScreen Eu Kinase Binding Assay inhibitor studies were performed as follows. LanthaScreen Kinase Binding Assays (ThermoFisher/USA) to evaluate inhibitors were performed by addition of 5 μl of test compound in corresponding DMSO dilutions/5 μl of kinase/antibody mixture, 5 μl of tracer into 384 well small volume plates. After incubation for 1 hour at room temperature, plates were read. Data analysis of emission ratios was according to LanthaScreen Eu Kinase Binding Assay protocol.
Kinase and assay components were adjusted to final concentrations according to the kit protocol. For LRRK2: 5 nM wt human LRRK2, catalytic site, or G2019S human LRRK2, catalytic site (ThermoFisher/USA), 2 nM Eu-Anti-GST Antibody, 10 nM Kinase Tracer 236 in 1× Kinase Buffer A. For NUAK1: 8 nM wt human NUAK1, full length (ThermoFisher/USA), 2 nM Eu-Anti-His Antibody, 5 nM Kinase Tracer 236 in 1× Kinase Buffer A.

Row | SMILES | IC50
1 | Cc1ccc2c(c1)-c1[nH]ncc1N=C(c1c(F)cc(Br)cc1F)N2 [Compound 176, 5-(4-bromo-2,6-difluorophenyl)-9-methyl-1,6-dihydrobenzo[d]pyrazolo[3,4-f][1,3]diazepine] | 100 to 1000 nM
2 | CCc1ccc2c(c1)-c1[nH]ncc1N=C(c1c(F)cccc1F)N2 [Compound 44, 5-(2,6-difluorophenyl)-9-ethyl-1,6-dihydrobenzo[d]pyrazolo[3,4-f][1,3]diazepine] | 10 to 100 nM
3 | CC(C)Oc1ccc2c(c1)NC(c1c(F)cccc1F)=Nc1cn[nH]c1-2 [Compound 100, 5-(2,6-difluorophenyl)-8-isopropoxy-1,6-dihydrobenzo[d]pyrazolo[3,4-f][1,3]diazepine] | 100 to 1000 nM
4 | Cc1ccc2c(c1)-c1[nH]ncc1NC(c1c(F)ccc(F)c1Cl)=N2 [Compound 185, 5-(2-chloro-3,6-difluorophenyl)-9-methyl-1,4-dihydrobenzo[d]pyrazolo[3,4-f][1,3]diazepine] | 100 to 1000 nM
5 | O=C(Nc1ccc2c(c1)-c1n[nH]cc1NC(c1c(F)cccc1F)=N2)OCc1ccccc1 [Compound 207, benzyl(5-(2,6-difluorophenyl)-2,4-dihydrobenzo[d]pyrazolo[3,4-f][1,3]diazepin-9-yl)carbamate] | 10 to 100 nM
6 | NC(=O)c1cnc2c(c1)-c1[nH]ncc1N=C(c1c(F)cccc1F)N2 [Compound 140, 5-(2,6-difluorophenyl)-1,6-dihydropyrazolo[4,3-d]pyrido[3,2-f][1,3]diazepine-9-carboxamide] | 100 to 1000 nM
7 | Fc1cccc(Cl)c1C1=Nc2cnc(C(F)(F)F)cc2-c2[nH]ncc2N1 [Compound 188, 5-(2-chloro-6-fluorophenyl)-9-(trifluoromethyl)-1,4-dihydropyrazolo[4,3-d]pyrido[4,3-f][1,3]diazepine] | 100 to 1000 nM
8 | Cc1ccc2c(c1)-c1[nH]ncc1N=C(c1c(F)ccc(N)c1F)N2 [Compound 177, 2,4-difluoro-3-(9-methyl-1,6-dihydrobenzo[d]pyrazolo[3,4-f][1,3]diazepin-5-yl)aniline] | 100 to 1000 nM
9 | Cc1ccc2c(c1)-c1[nH]ncc1N=C(c1c(F)cc(F)cc1F)N2 [Compound 175, 9-methyl-5-(2,4,6-trifluorophenyl)-1,6-dihydrobenzo[d]pyrazolo[3,4-f][1,3]diazepine] | 10 to 100 nM
10 | Fc1cccc(F)c1C1=Nc2cn[nH]c2-c2cc(-c3ccc[nH]3)cnc2N1 [Compound 87, 5-(2,6-difluorophenyl)-9-(1H-pyrrol-2-yl)-1,6-dihydropyrazolo[4,3-d]pyrido[3,2-f][1,3]diazepine] | 100 to 1000 nM
11 | CN(C)C(=O)Oc1ccc2c(c1)-c1[nH]ncc1NC(c1c(F)cccc1F)=N2 [Compound 136, 5-(2,6-difluorophenyl)-1,4-dihydrobenzo[d]pyrazolo[3,4-f][1,3]diazepin-9-yl dimethylcarbamate] | 100 to 1000 nM
12 | Fc1cccc(F)c1C1=Nc2c(C3CC3)n[nH]c2-c2ccccc2N1 [Compound 137, 3-cyclopropyl-5-(2,6-difluorophenyl)-1,6-dihydrobenzo[d]pyrazolo[3,4-f][1,3]diazepine] | 100 to 1000 nM
13 | CCc1cc(F)c2c(c1)-c1[nH]ncc1NC(c1c(F)cccc1F)=N2 [Compound 167, 5-(2,6-difluorophenyl)-9-ethyl-7-fluoro-1,4-dihydrobenzo[d]pyrazolo[3,4-f][1,3]diazepine] | 100 to 1000 nM
14 | Fc1cccc(F)c1C1=Nc2cn[nH]c2-c2cc(OC3CCOCC3)ccc2N1 [Compound 102, 5-(2,6-difluorophenyl)-9-((tetrahydro-2H-pyran-4-yl)oxy)-1,6-dihydrobenzo[d]pyrazolo[3,4-f][1,3]diazepine] | 100 to 1000 nM
15 | FCc1ccc2c(c1)-c1[nH]ncc1N=C(c1c(F)cccc1F)N2 [Compound 51, 5-(2,6-difluorophenyl)-9-(fluoromethyl)-1,6-dihydrobenzo[d]pyrazolo[3,4-f][1,3]diazepine] | 100 to 1000 nM
16 | COc1cc(F)c(C2=Nc3cn[nH]c3-c3cc(C)ccc3N2)c(F)c1 [Compound 173, 5-(2,6-difluoro-4-methoxyphenyl)-9-methyl-1,6-dihydrobenzo[d]pyrazolo[3,4-f][1,3]diazepine] | 10 to 100 nM

Results, then the molecule that gave them:

Row | IC50 | SMILES
17 | 100 to 1000 nM | FCCc1ccc2c(c1)-c1n[nH]cc1NC(c1c(F)cccc1F)=N2 [Compound 204, 5-(2,6-difluorophenyl)-9-(2-fluoroethyl)-2,4-dihydrobenzo[d]pyrazolo[3,4-f][1,3]diazepine]
18 | 10 to 100 nM | Cc1ccc2c(c1)-c1n[nH]cc1NC(c1c(F)ccc(C)c1F)=N2 [Compound 178, 5-(2,6-difluoro-3-methylphenyl)-9-methyl-2,4-dihydrobenzo[d]pyrazolo[3,4-f][1,3]diazepine]
19 | 10 to 100 nM | Fc1cccc(F)c1C1=Nc2cn[nH]c2-c2cc(C(F)(F)F)ccc2N1 [Compound 46, 5-(2,6-difluorophenyl)-9-(trifluoromethyl)-1,6-dihydrobenzo[d]pyrazolo[3,4-f][1,3]diazepine]
20 | 100 to 1000 nM | Fc1cccc(F)c1C1=Nc2cn[nH]c2-c2cc(OC(F)(F)F)ccc2N1 [Compound 40, 5-(2,6-difluorophenyl)-9-(trifluoromethoxy)-1,6-dihydrobenzo[d]pyrazolo[3,4-f][1,3]diazepine]
21 | 100 to 1000 nM | Cc1ccc2c(c1)-c1n[nH]cc1NC(c1c(F)cc(C(F)(F)F)cc1F)=N2 [Compound 205, 5-(2,6-difluoro-4-(trifluoromethyl)phenyl)-9-methyl-2,4-dihydrobenzo[d]pyrazolo[3,4-f][1,3]diazepine]
22 | 10 to 100 nM | Cc1cc(F)c(C2=Nc3ccc(C)cc3-c3n[nH]cc3N2)c(F)c1 [Compound 179, 5-(2,6-difluoro-4-methylphenyl)-9-methyl-2,4-dihydrobenzo[d]pyrazolo[3,4-f][1,3]diazepine]
23 | 100 to 1000 nM | Cc1ccc2c(c1)-c1n[nH]cc1NC(c1c(F)cccc1C(F)(F)F)=N2 [Compound 206, 5-(2-fluoro-6-(trifluoromethyl)phenyl)-9-methyl-2,4-dihydrobenzo[d]pyrazolo[3,4-f][1,3]diazepine]
24 | 100 to 1000 nM | CSc1n[nH]c2c1NC(c1c(F)cccc1F)=Nc1ccc(C)cc1-2 [Compound 145, 5-(2,6-difluorophenyl)-9-methyl-3-(methylthio)-1,4-dihydrobenzo[d]pyrazolo[3,4-f][1,3]diazepine]
25 | 10 to 100 nM | Fc1cccc(F)c1C1=Nc2ccc(CCCl)cc2-c2n[nH]cc2N1 [Compound 209, 9-(2-chloroethyl)-5-(2,6-difluorophenyl)-2,4-dihydrobenzo[d]pyrazolo[3,4-f][1,3]diazepine]
26 | 100 to 1000 nM | Cc1ccc2c(c1)-c1n[nH]c(C)c1NC(c1c(F)cccc1F)=N2 [Compound 212, 5-(2,6-difluorophenyl)-3,9-dimethyl-2,4-dihydrobenzo[d]pyrazolo[3,4-f][1,3]diazepine]
27 | 100 to 1000 nM | Fc1cccc(Cl)c1C1=Nc2cn[nH]c2-c2cc(OC(F)(F)F)ccc2N1 [Compound 41, 5-(2-chloro-6-fluorophenyl)-9-(trifluoromethoxy)-1,6-dihydrobenzo[d]pyrazolo[3,4-f][1,3]diazepine]
28 | 100 to 1000 nM | Fc1cccc(Cl)c1C1=Nc2cn[nH]c2-c2cc(C(F)(F)F)ccc2N1 [Compound 47, 5-(2-chloro-6-fluorophenyl)-9-(trifluoromethyl)-1,6-dihydrobenzo[d]pyrazolo[3,4-f][1,3]diazepine]
29 | 100 to 1000 nM | OCCc1ccc2c(c1)-c1n[nH]cc1NC(c1c(F)cccc1F)=N2 [Compound 208, 2-(5-(2,6-difluorophenyl)-2,4-dihydrobenzo[d]pyrazolo[3,4-f][1,3]diazepin-9-yl)ethan-1-ol]
